Experimental data from US20090215758A1, “Use of 2,5-Disubstituted Thiazol-4-One Derivatives in Drugs” (Gruenenthal GmbH, priority 2005, published 2009).
Counter-ions that a name gives are not always drawn.

How the values were obtained:
[1] = target: T1, vanilloid receptor 1 (VR1/TRPV1) of the rat species (Rattus norvegicus, UniProt O35433); assay: Functional study on vanilloid receptor 1, FLIPR Ca2+ assay in rat dorsal root ganglia cells; assay type: cell-based; conditions: for inhibition at 10 µM: 5 min incubation, then 100 nM capsaicin, relative to maximum inhibition with 10 μM capsaicin, read-out: VR1 (rat) (% inhibition compared to 10 μM CP); for activation at 10 µM: read-out: VR1 (rat) (% stimulation compared to 10 μM CP); for EC50: unit inferred
T1 construct: The spinal column is removed from beheaded rats; from tissue; host or cells: primary cells from rat dorsal root ganglia (DRGs)
T1 sequence (O35433 whole entry): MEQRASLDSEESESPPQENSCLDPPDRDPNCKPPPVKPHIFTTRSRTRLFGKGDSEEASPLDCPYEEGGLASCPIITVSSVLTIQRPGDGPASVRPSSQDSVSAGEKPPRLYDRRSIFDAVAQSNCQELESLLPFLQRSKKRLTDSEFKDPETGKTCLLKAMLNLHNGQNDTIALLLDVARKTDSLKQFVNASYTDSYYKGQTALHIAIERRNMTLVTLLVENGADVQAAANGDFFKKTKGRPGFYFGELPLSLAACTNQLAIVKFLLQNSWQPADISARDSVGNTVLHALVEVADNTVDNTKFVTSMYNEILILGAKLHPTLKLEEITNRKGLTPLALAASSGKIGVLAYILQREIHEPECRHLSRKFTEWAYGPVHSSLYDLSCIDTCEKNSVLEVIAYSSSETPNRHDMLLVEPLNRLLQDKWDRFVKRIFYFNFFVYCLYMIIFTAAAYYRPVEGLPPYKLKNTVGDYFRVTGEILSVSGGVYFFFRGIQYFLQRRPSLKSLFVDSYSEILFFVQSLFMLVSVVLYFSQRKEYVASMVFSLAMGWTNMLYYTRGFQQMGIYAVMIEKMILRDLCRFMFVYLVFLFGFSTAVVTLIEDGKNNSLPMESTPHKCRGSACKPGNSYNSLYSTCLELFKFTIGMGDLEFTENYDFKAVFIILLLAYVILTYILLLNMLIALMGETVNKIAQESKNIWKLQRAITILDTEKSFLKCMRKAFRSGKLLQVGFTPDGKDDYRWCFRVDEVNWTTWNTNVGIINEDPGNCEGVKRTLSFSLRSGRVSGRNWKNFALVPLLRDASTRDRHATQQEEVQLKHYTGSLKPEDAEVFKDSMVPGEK

VR1 (human) = target: T2, VR1 (human) (Homo sapiens, UniProt Q8NER1); assay: Functional study on vanilloid receptor (VR1), FLIPR Ca2+ assay in CHO K1 cells stably transfected with the VR1 gene; assay type: cell-based; conditions: for inhibition at 10 µM / activation at 10 µM: CHO-K1, test compound 10 μM; for inhibition at 10 µM: 5 min incubation, then 100 nM capsaicin, compared to 10 μM CP; for activation at 10 µM: Ca2+ signal relative to 10 μM capsaicin (CP), read-out: VR1 (human) (% stimulation compared to 10 μM CP); for EC50: unit inferred
T2 construct: expressed in transfected cells; host or cells: CHO K1 cells (ECACC), stably transfected
T2 sequence (Q8NER1 whole entry): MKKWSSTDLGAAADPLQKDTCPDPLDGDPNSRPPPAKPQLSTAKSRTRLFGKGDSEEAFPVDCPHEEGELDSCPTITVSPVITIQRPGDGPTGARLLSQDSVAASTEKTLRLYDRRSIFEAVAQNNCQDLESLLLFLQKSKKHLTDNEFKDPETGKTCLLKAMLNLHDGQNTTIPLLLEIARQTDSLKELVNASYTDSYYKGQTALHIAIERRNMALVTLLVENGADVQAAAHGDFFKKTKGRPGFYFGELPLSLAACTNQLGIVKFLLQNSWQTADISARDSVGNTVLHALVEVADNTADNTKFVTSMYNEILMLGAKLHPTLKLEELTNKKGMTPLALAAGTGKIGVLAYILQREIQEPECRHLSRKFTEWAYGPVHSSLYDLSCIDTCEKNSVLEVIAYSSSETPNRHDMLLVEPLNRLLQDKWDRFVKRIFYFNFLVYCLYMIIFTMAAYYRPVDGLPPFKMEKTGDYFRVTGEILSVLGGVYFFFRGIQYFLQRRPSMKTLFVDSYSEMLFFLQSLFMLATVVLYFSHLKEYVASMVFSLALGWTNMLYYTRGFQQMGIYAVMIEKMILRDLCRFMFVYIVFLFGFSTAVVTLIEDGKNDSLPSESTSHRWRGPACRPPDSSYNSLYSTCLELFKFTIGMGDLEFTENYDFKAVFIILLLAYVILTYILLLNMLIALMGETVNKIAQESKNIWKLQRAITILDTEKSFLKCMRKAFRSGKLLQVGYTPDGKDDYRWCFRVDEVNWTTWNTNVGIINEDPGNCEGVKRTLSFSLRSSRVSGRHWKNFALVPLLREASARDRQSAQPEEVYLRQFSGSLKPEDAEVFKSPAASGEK

[2] = test compound 10 μM, Ca2+ signal relative to 10 μM capsaicin (CP)

| SMILES | inhibition at 10 µM ([1]; test compound 10 μM) [%] | activation at 10 µM [1, 2] [%] | inhibition at 10 µM (VR1 (human)) [%] | activation at 10 µM (VR1 (human)) [%] | EC50 [1] [µM] | EC50 (VR1 (human)) [µM] | VR1 (rat) (% stimulation compared to 10 μM CP) [1, 2] [%] |
| --- | --- | --- | --- | --- | --- | --- | --- |
| O=C1N=C(N2CCOCC2)SC1=CC(=Cc1ccccc1)c1ccccc1 [Example 50, 5-(2,3-diphenylallylidene)-2-morpholin-4-ylthiazol-4-one] | 21.3 | 7.19 | 51.6 | 0 | – | – | – |
| O=C1N=C(N2CCSCC2)SC1=CC(Cl)=Cc1ccccc1 [Example 85, 5-(2-chloro-3-phenylallylidene)-2-thiomorpholin-4-ylthiazol-4-one] | 77.1 | 54.9 | 97.5 | 82.5 | – | – | – |
| O=C1N=C(N2CCSCC2)SC1=Cc1cccc(C(F)(F)F)c1 [Example 195, 2-thiomorpholin-4-yl-5-(3-trifluoromethylbenzylidene)thiazol-4-one hydrobromide] | 96.1 | 94.3 | 90.3 | 80.3 | 2.2 | 5.9 | – |
| Cc1ccc(C=C2SC(N3CCN(c4ncccc4Cl)CC3)=NC2=O)cc1 [Example 30, 2-[4-(3-chloropyridin-2-yl)piperazin-1-yl]-5-(4-methylbenzylidene)thiazol-4-one] | 97 | 0.92 | 73.3 | 0.06 | – | – | – |
| CCN(CC)C1=NC(=O)C(=Cc2cccc(C(F)(F)F)c2)S1 [Example 214, 2-diethylamino-5-(3-trifluoromethylbenzylidene)thiazol-4-one] | 50.1 | 13.7 | 56.7 | 6.08 | – | – | – |
| O=C(NC1=NC(=O)C(=Cc2ccc(C(F)(F)F)cc2)S1)Nc1ccccc1C(F)(F)F [Example 96, 1-[4-oxo-5-(4-trifluoromethylbenzylidene)-4,5-dihydrothiazol-2-yl]-3-(2-trifluoromethylphenyl)urea] | 27 | 28.5 | 54.6 | 5.03 | – | – | – |
| CC(=CC=C1SC(N2CCOCC2)=NC1=O)c1ccc(C)cc1 [Example 33, 2-morpholin-4-yl-5-(3-p-tolylbut-2-enylidene)thiazol-4-one] | 64.8 | 49.6 | 14.7 | 25.7 | – | – | – |
| O=C1N=C(N2CCOCC2)SC1=CC=Cc1ccccc1 [Example 189, 2-morpholin-4-yl-5-(3-phenylallylidene)thiazol-4-one hydrobromide] | 5.61 | 6.64 | 8.14 | 11.2 | > 25 | > 50 | – |
| O=C1N=C(N2CCSCC2)SC1=CC=Cc1ccccc1 [Example 25, 5-(3-phenylallylidene)-2-thiomorpholin-4-ylthiazol-4-one] | 87.2 | – | 37.6 | 29.1 | – | – | 80.77 |
| CC1CN(C(=O)c2cccc(C=C3SC(N4CCSCC4)=NC3=O)c2)CCN1c1ncccc1Cl (stereo not drawn) [Example 110, 5-{3-[4-(3-chloropyridin-2-yl)-3-methylpiperazine-1-carbonyl]benzylidene}-2-thiomorpholin-4-ylthiazol-4-one] | 50.3 | 49.3 | 28.8 | 1.02 | – | – | – |
| CC(C)(C)c1ccc(C=C2SC(N3CCCCCC3)=NC2=O)cc1 [Example 200, 2-azepan-1-yl-5-(4-tert-butylbenzylidene)thiazol-4-one hydrobromide] | 46.2 | 31.4 | 2.12 | 17.5 | > 25 | > 25 | – |
| O=C1N=C(N2CCOCC2)SC1=Cc1ccc(Oc2ccccc2)cc1 [Example 17, 2-morpholin-4-yl-5-(4-phenoxybenzylidene)thiazol-4-one] | 91.1 | 120 | 19.6 | 46 | 6.36 | 17.8 | – |
| CC(C)(C)c1ccc(C=C2SC(N3CCCC3)=NC2=O)cc1 [Example 199, 5-(4-tert-butylbenzylidene)-2-pyrrolidin-1-ylthiazol-4-one hydrobromide] | 69.5 | 42.9 | 4.43 | 9.64 | – | – | – |
| O=C1N=C(N2CCCCCC2)SC1=CC=Cc1ccccc1 [Example 192, 2-azepan-1-yl-5-(3-phenylallylidene)thiazol-4-one hydrobromide] | 2.18 | 1.34 | 10.3 | 16.7 | > 50 | > 50 | – |
